The values below come from US7074814B2, “3-substituted indoles and derivatives thereof as therapeutic agents” (Warner-Lambert Company LLC, priority 2003, dated 2006).

T1 sequence (P48736 whole entry, species assumed): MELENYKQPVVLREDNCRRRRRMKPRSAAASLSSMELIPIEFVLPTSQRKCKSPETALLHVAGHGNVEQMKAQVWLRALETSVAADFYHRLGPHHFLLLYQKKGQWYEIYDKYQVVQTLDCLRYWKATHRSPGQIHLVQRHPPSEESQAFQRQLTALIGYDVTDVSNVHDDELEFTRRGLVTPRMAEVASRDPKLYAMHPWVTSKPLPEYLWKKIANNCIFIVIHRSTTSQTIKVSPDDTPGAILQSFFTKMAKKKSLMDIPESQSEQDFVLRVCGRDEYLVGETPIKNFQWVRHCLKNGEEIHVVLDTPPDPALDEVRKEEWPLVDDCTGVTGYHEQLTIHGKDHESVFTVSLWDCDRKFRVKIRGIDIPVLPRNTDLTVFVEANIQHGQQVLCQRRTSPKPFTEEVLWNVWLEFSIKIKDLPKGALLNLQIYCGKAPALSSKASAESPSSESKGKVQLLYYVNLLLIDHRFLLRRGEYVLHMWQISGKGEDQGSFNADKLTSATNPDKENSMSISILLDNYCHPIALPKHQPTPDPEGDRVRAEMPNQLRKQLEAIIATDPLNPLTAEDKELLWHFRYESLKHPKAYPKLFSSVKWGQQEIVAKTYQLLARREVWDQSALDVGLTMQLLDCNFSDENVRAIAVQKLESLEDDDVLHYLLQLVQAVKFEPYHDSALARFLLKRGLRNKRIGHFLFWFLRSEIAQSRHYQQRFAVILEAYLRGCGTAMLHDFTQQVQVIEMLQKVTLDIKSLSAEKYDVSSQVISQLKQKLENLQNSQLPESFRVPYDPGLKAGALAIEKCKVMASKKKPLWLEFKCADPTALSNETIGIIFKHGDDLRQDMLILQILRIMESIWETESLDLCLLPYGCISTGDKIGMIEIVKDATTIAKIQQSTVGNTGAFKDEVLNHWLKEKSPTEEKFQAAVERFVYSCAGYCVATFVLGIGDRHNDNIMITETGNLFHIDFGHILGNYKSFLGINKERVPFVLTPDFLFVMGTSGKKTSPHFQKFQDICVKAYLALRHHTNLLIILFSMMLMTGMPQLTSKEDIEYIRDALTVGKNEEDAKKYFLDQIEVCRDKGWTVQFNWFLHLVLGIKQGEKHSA
T1 sequence (Q8WYR1 whole entry partner, species assumed): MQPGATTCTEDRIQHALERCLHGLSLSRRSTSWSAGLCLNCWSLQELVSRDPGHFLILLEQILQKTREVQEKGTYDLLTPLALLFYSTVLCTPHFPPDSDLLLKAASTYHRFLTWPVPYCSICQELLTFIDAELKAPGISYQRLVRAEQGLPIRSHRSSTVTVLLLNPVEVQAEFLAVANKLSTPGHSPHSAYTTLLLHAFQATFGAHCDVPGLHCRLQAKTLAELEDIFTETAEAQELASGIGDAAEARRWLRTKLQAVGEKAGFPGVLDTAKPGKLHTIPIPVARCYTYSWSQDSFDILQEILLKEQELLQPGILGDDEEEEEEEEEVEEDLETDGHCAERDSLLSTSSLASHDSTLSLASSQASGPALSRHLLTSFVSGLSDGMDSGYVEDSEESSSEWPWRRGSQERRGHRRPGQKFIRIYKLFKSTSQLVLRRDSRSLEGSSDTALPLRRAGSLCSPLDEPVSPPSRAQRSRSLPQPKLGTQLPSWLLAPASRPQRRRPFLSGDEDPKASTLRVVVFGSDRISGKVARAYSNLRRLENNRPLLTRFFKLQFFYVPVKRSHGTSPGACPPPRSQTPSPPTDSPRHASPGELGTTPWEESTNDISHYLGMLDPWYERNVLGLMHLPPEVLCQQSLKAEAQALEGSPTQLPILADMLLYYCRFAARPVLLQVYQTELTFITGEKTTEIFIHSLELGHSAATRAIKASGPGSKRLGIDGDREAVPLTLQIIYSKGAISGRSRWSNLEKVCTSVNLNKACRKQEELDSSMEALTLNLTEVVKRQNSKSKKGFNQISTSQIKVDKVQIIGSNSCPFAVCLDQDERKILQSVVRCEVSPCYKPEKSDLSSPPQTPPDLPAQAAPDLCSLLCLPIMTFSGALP

This test addresses T1, p101/p110γ protein (PI3Kγ) (Homo sapiens, UniProt P48736).
T1 construct: HA; made in house; host or cells: Spodoptera frugiperda (Sf9) cells, baculovirus coinfection
Briefly: PI3Kγ in vitro kinase assay. The test is classed as biochemical. The conditions noted are these: purified recombinant p101/p110γ with G protein β1/γ2 subunits; 20 μM ATP, 25 μM PIP2; 20 minutes at room temperature. The protocol: Spodtera frugiperda cells, grown in ESF921 media, were coinfected with baculovirus expressing a glu-tagged p101 and baculovirus expressing an HA-tagged p110γ, at a 3:1 ratio of p101 baculovirus to p110γ baculovirus. Sf9 cells were grown to 1×10^7 total cells/mL in 10 L bioreactors and harvested 48–72 hours post infection. Samples of infected cells were then tested for expression of […] PI3 kinase by immunoprecipitation and Western Blot analysis methods (see below).
To purify PI3Kγ, 4 volumes of room temperature hypotonic lysis buffer (1 mM MgCl2, 1 mM DTT, 5 mM EGTA, 1 mM Pefabloc, 0.5 μM aprotinin, 5 μM leupeptin, 2 μM pepstatin, 5 μM E64, pH 8) per gram of cell paste, was poured onto frozen cell pellets with stirring, then lysed in a nitrogen “bomb” at 400 psi (599HC T316, Parr Instrument Co, Moline, Ill.). NaCl was added to 150 mM, and sodium cholate was added to 1% and mixed for another 45 minutes. The lysates were clarified by centrifugation for 25 minutes at 14,000 rpm. The lysates were then loaded over anti-glu-linked Protein-G Sepaharose beads (Covance Research Products, Richmond, Calif.) using 20 mL resin/50 g cell paste. The column was washed with 15 volumes of wash buffer (1 mM DTT, 0.2 mM EGTA, 1 mM Pefabloc, 0.5 μM aprotinin, 5 μM leupeptin, 2 μM pepstatin, 5 μM E64, 150 mM NaCl, 1% sodium cholate, pH 8). PI3Kγ was eluted with 6 column volumes of wash buffer that contain 100 μg/mL of a peptide that competes for binding of the glu tag. The column fractions with the eluted protein (determined by taking OD280 readings) were collected and dialyzed in 0.2 mM EGTA, 1 mM DTT, 1 mM Pefabloc, 5 μM leupeptin, 0.5% sodium cholate, 150 mM NaCl, and 50% glycerol, pH 8. The fractions were stored at −80° C. until further use.
Spodtera frugiperda cells were coinfected with baculovirus expressing a glu-tagged G protein β1 and baculovirus expressing a G protein β2, at a 1:1 ratio of glu-tagged G protein β1 baculovirus to G protein β2 baculovirus. Sf9 cells are grown in 10 L bioreactors and harvested 48–72 hours post infection. Samples of infected cells were tested for G protein β1/β2 expression by Western Blot analysis, as described below. Cell lysates were homogenized and loaded onto a column of glu-tagged beads as in Biological Example 1 and competed off the column with a glu peptide and processed as described in Biological Example 1.
The inhibitory properties of the compounds in Table 1 were assayed in an in vitro PI3K assay. In a 96-well polypropylene plate, each well was spotted with 2 μL of 50 times the desired final concentration of compound in DMSO. Purified recombinant p101/p110γ protein (0.03 μg; ˜2.7 nM) and G protein β1/γ2 subunits (0.09 μg; ˜57.7 nM) for each reaction was combined in the assay buffer (30 mM HEPES, 100 mM NaCl, 1 mM EGTA, and 1 mM DTT). ATP and [γ-^32P-ATP] (0.09 μCi) were added to this mixture so that the final ATP concentration in the reaction was 20 μM. Lipid micelles were formed by sonicating phosphatidylinositol-4,5-diphosphate (PIP2), phosphatidylethanolamine (PE), and Na-cholate in the assay buffer for 10 minutes, adding MgCl2 and incubating on ice for 20 minutes, for final concentrations of 25 μM PIP2, 300 μM PE, 0.02% Na-cholate, and 10 mM MgCl2 in the reaction. The reactions were started by adding equal volumes lipid and enzyme mixture in a total volume of 50 μL, allowed to run for 20 minutes at room temperature, and stopped with 100 μL 75 mM H3PO4. The lipid product was transferred to a glass fiber filter plate and washed with 75 mM H3PO4 several times. The presence of radioactive lipid product (PIP3) was measured by adding Wallac Optiphase mix to each well and counting in a Wallac 1450 Trilux plate reader (PerkinElmer Life Sciences Inc., Boston, Mass. 02118). The IC50 for each compound tested is reported in μM in Table 1: […]
The IC50 is the concentration that inhibits the measured activity by half. With “1-Ethyl-5,6-dimethoxy-3-phenyl-1H-indole-2-carboxylic acid (1H-tetrazol-5-yl)-amide [Example 6]”, the IC50 came to 6600 nM.
For “5,6-Dimethoxy-3-phenyl-1-propyl-1H-indole-2-carboxylic acid (1H-tetrazol-5-yl)-amide [Example 7]” the value was 4140 nM.
The figure for `COc1cc2[nH]c(C(=O)Nc3nn[nH]n3)c(Sc3ccccc3C)c2cc1OC` [Example 1, 5,6-Dimethoxy-3-o-tolylsulfanyl-1H-indole-2-carboxylic acid (2H-tetrazol-5-yl)-amide] is 585 nM; for `COc1cc2[nH]c(C(=O)Nc3nn[nH]n3)c(Sc3ccc(Cl)c(Cl)c3)c2cc1OC` [Example 2, 3-(3,4-Dichloro-phenylsulfanyl)-5,6-dimethoxy-1H-indole-2-carboxylic acid (2H-tetrazol-5-yl)-amide] it is 1840 nM.
In the case of `COc1cc2c(Sc3ccccc3)c(C(=O)Nc3nn[nH]n3)n(C)c2cc1OC` [Example 3, 5,6-Dimethoxy-1-methyl-3-phenylsulfanyl-1H-indole-2-carboxylic acid (2H-tetrazol-5-yl)-amide], the half-inhibitory concentration (IC50) amounted to 550 nM.
In the case of `COc1cc2[nH]c(C(=O)Nc3nn[nH]n3)c(Sc3ccccc3)c2cc1OC` [Example 4, 5,6-Dimethoxy-3-phenylsulfanyl-1H-indole-2-carboxylic acid (2H-tetrazol-5-yl)-amide], the IC50 amounted to 210 nM.
The figure for `COc1cccc(Sc2c(C(=O)Nc3nn[nH]n3)[nH]c3cc(OC)c(OC)cc23)c1` [Example 5, 5,6-Dimethoxy-3-(3-methoxy-phenylsulfanyl)-1H-indole-2-carboxylic acid (2H-tetrazol-5-yl)-amide] is 725 nM.
